Reference: US9963496B2, “Stable glucagon analogues and use for treatment of hypoglycaemia” (Novo Nordisk A/S, priority 2014, dated 2018)
*1 amine or outer side, *2 acyl side, *3 side chain or, on linkers, in order; H or OH if unused. Where a SMILES comes first, the peptide text is derived from it. Side-chain parts run from the residue outwards. [ ]: non-standard residue; d: D form. The star is where a group is joined. γGlu = O=C(O)[C@H](CCC(=O)[*:2])N[*:1]; Desaminohistidyl = O=C(CCc1c[nH]cn1)*; Aib = CC(C)(N)C(=O)O

Key:
human glucagon receptor = biological target: T1, human glucagon receptor (Homo sapiens, UniProt P47871); experiment: Assay (I)(b): glucagon receptor activation, CRE luciferase reporter gene assay in BHK cells; type: cell-based; conditions: BHK cells expressing human glucagon receptor and CRE luciferase, 3 h incubation; read-out: EC50 hGlucagonR
T1 construct: expressed in transfected cells; host or cells: BHK cells, clone BHK hGCGR A3*25; isolated membranes
Description: The purpose of this assay is to test the activity, or potency, of the derivatives of the invention, in vitro. The in vitro potency is the measure of human GLP-1 receptor and/or glucagon receptor activation, respectively, in a whole cell assay.
In vitro potency was determined by measuring the response of human GLP-1 or glucagon receptor, respectively, in a reporter gene assay. The assay was performed in a stably transfected BHK cell line that expressed either the human GLP-1 receptor or the human glucagon receptor and contained the DNA for the cAMP response element (CRE) coupled to a promoter and the gene for firefly luciferase (CRE luciferase). […] When assay incubation was completed, the luciferase substrate (luciferin) was added and the enzyme converted luciferin to oxyluciferin and produced bioluminescence. The luminescence was measured as the readout for the assay.
(b) Glucagon Receptor Activation
The cells used in this assay (clone pLJ6′-4-25) were BHK cells with BHK570 as a parent cell line expressing the CRE luciferase gene (clone BHK/KZ10-20-48) and were established by further transfection with the human glucagon receptor (clone pLJ6′ in pHZ-1 vector).
The cells were cultured at 5% CO2 in DMEM medium with 10% FBS, 1× GlutaMAX, 1 mg/mL G418, 240 nM MTX (methotrexate) and 1% pen/strep (penicillin/streptomycin). They were aliquoted and stored in liquid nitrogen. Before each assay, an aliquot was taken up and washed three times in PBS before being suspended at the desired concentration in assay buffer. For 96-well plates the suspension was made to give a final concentration of 5×10 EE3 cells/well.
Assay Medium consisted of DMEM w/o phenol red, 10 mM Hepes, lx GlutaMAX, 2% Ovalbumin and 0.2% Pluronic F-68.
Cell stocks were thawed in a 37° C. water bath. Cells were washed three times in PBS. The cells were counted and adjusted to 5×10 EE3 cells/50 μl (1×10 EE5 cells/mL) in Assay Medium. A 50 μl aliquot of cells was transferred to each well in the assay plate.
Stocks of the test compounds and reference compounds were diluted to a concentration of […] in Assay Medium. Compounds were diluted 10-fold to give the following concentrations: […], 2×10 EE-7 M, 2×10 EE-8 M; 2×10 EE-9 M, 2×10 EE-10 M, 2×10 EE-11 M, 2×10 EE-12 M and 2×10 EE-13 M. For each compound a blank assay buffer control was also included.
A 50 μl aliquot of compound or blank was transferred from the dilution plate to the assay plate. Compounds were tested at the following final concentrations: 1×10 EE-6 M, 1×10 EE-7 M, 1×10 EE-8 M; 1×10 EE-9 M, 1×10 EE-10 M, 1×10 EE-11 M and 1×10 EE-12 M and 1×10 EE-13 M.
The assay plate was incubated for 3 h in a 5% CO2 incubator at 37° C. The assay plate was removed from the incubator and allowed to stand at room temperature for 15 min. A 100 μl aliquot of steadylite plus reagent was added to each well of the assay plate (reagent is light sensitive). Each assay plate was covered with aluminum foil to protect it from light and shaken for 30 min at room temperature. Each assay plate was read in a Packard TopCount NXT instrument.
The data from the TopCount instrument was transferred to GraphPad Prism software. The software performed a non-linear regression (log(agonist) vs response-Variable slope (four parameter)). EC50 values were calculated by the software and reported in pM.

physchem = type: physicochemical; conditions: pH 7.5
Source text: Assay (III): ThT Fibrillation Assay for the Assessment of Physical Stability of Peptide Compositions The purpose of this assay is to assess the physical stability of the glucagon derivatives of the invention in aqueous solutions. Low physical stability of a peptide may lead to amyloid fibril formation, which is observed as well-ordered, thread-like macromolecular structures in the sample, which eventually may lead to gel formation. This has traditionally been measured by visual inspection of the sample. However, that kind of measurement is very cumbersome and depending on the observer. Therefore, the application of a small molecule indicator probe is much more advantageous. Thioflavin T (ThT) is such a probe and has a distinct fluorescence signature when binding to fibrils [Naiki et al. (1989) Anal. Biochem. 177, 244-249; LeVine (1999) Methods. Enzymol. 309, 274-284]. Here, as depicted in FIG. 1, F is the ThT fluorescence at the time t. The constant t0 is the time needed to reach 50% of maximum fluorescence. The two important parameters describing fibril formation are the lag-time calculated by t0−2τ and the apparent rate constant kapp 1/τ. Samples were prepared freshly before each assay. Each sample composition is described in the legends. The pH of the sample was adjusted to the desired value using appropriate amounts of concentrated NaOH and HCl. Thioflavin T was added to the samples from a stock solution in H2O to a final concentration of 1 μM. Sample aliquots of 200 μl (250 μM of the glucagon derivative/analogue in 10 mM HEPES buffer, pH 7.5) were placed in a 96 well microtiter plate (Packard OptiPlate™-96, white polystyrene). Usually, four or eight replica of each sample (corresponding to one test condition) was placed in one column of wells. The plate was sealed with Scotch Pad (Qiagen). Incubation at given temperature, shaking and measurement of the ThT fluorescence emission were done in a Fluoroskan Ascent FL fluorescence platereader (Thermo Labsystems). The plate was incubated 37° C. with orbital shaking adjusted to 960 rpm with an amplitude of 1 mm. Fluorescence measurement was done using excitation through a 444 nm filter and measurement of emission through a 485 nm filter. Each run was initiated by incubating the plate at the assay temperature for 10 min. The plate was measured every 20 minutes for a desired period of time. Between each measurement, the plate was shaken and heated as described. After completion of the ThT assay the four or eight replica of each sample was pooled and centrifuged at 20000 rpm for 30 minutes at 18° C. The supernatant was filtered through a 0.22 μm filter and an aliquot was transferred to a HPLC vial. The concentration of peptide in the initial sample and in the filtered supernatant was determined by reverse phase HPLC using an appropriate standard as reference. The percentage fraction the concentration of the filtered sample constituted of the initial sample concentration was reported as the recovery. The measurement points were saved in Microsoft Excel format for further processing and curve drawing and fitting was performed using GraphPad Prism. The background emission from ThT in the absence of fibrils was negligible. The data points were typically a mean of four or eight samples and shown with standard deviation error bars. Only data obtained in the same experiment (i.e. samples on the same plate) were presented in the same graph ensuring a relative measure of fibrillation between experiments. The data set may be fitted to Eq. (1).

T1 sequence (P47871 26-477): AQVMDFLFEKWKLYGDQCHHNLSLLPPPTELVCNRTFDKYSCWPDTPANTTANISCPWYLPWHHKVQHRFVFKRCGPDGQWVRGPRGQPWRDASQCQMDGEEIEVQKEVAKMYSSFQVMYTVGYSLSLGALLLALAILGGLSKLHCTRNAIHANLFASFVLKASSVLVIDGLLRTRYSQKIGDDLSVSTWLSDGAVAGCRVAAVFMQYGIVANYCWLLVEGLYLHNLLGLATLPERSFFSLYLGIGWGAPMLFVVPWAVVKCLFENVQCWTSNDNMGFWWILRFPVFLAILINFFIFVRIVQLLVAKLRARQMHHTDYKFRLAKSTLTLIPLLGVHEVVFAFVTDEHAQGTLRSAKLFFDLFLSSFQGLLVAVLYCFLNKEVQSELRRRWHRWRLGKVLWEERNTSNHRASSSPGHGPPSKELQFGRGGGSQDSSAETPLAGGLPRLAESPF

SMILES	EC50 (human glucagon receptor) [pM]	recovery at 250 μM (physchem) [%]
CC(=O)N[C@@H](CCC(=O)N[C@@H](CCC(=O)N[C@@H](CCC(=O)N[C@@H](CCC(=O)NCCCC[C@H](NC(=O)[C@@H](NC(=O)[C@H](Cc1ccccc1)NC(=O)[C@H](CC(=O)O)NC(=O)[C@H](CCC(N)=O)NC(=O)[C@H](C)NC(=O)[C@H](CCCNC(=N)N)NC(=O)[C@H](CCCNC(=N)N)NC(=O)[C@H](CO)NC(=O)[C@H](CCC(=O)O)NC(=O)[C@H](CC(C)C)NC(=O)[C@H](Cc1ccc(O)cc1)NC(=O)[C@H](CCCCN)NC(=O)[C@H](CO)NC(=O)[C@H](Cc1ccc(O)cc1)NC(=O)[C@H](CC(=O)O)NC(=O)[C@H](CO)NC(=O)[C@@H](NC(=O)[C@H](Cc1ccccc1)NC(=O)[C@@H](NC(=O)CNC(=O)[C@H](Cc1c[nH]cn1)NC(=O)C(C)(C)NC(=O)CCc1c[nH]cn1)[C@@H](C)O)[C@@H](C)O)C(C)C)C(=O)N[C@@H](Cc1c[nH]c2ccccc12)C(=O)N[C@@H](CC(C)C)C(=O)N[C@@H](CC(C)C)C(=O)N[C@@H](CO)C(=O)N[C@H](C(=O)O)[C@@H](C)O)C(=O)O)C(=O)O)C(=O)O)C(=O)O [Example 2, N^ϵ24-[(4S)-4-[[(4S)-4-[[(4S)-4-[[(4S)-4-acetamido-4-carboxybutanoyl]amino]-4-carboxybutanoyl]amino]-4-carboxybutanoyl]amino]-4-carboxybutanoyl]-[Imp1, Aib2, His3, Glu15, Lys24, Leu27, Ser28]-Glucagon] (Desaminohistidyl-[Aib]HGTFTSDYSKYLESRRAQDFVK([γGlu-γGlu-γGlu-γGlu-Ac])WLLST-OH)	5	104
CC(=O)N[C@@H](CCC(=O)N[C@@H](CCC(=O)N[C@@H](CCC(=O)N[C@@H](CCC(=O)NCCCC[C@H](NC(=O)[C@@H](NC(=O)[C@H](Cc1ccccc1)NC(=O)[C@H](CCC(=O)O)NC(=O)[C@H](CCC(N)=O)NC(=O)[C@H](C)NC(=O)[C@H](CCCNC(=N)N)NC(=O)[C@H](CCCNC(=N)N)NC(=O)[C@H](CO)NC(=O)[C@H](CCC(=O)O)NC(=O)[C@H](CC(C)C)NC(=O)[C@H](Cc1ccc(O)cc1)NC(=O)[C@H](CCCCN)NC(=O)[C@H](CO)NC(=O)[C@H](Cc1ccc(O)cc1)NC(=O)[C@H](CC(=O)O)NC(=O)[C@H](CO)NC(=O)[C@@H](NC(=O)[C@H](Cc1ccccc1)NC(=O)[C@@H](NC(=O)CNC(=O)[C@H](Cc1c[nH]cn1)NC(=O)C(C)(C)NC(=O)CCc1c[nH]cn1)[C@@H](C)O)[C@@H](C)O)C(C)C)C(=O)N[C@@H](Cc1c[nH]c2ccccc12)C(=O)N[C@@H](CC(C)C)C(=O)N[C@@H](CC(C)C)C(=O)N[C@@H](CO)C(=O)N[C@H](C(=O)O)[C@@H](C)O)C(=O)O)C(=O)O)C(=O)O)C(=O)O [Example 7, N^ϵ24-[(4S)-4-[[(4S)-4-[[(4S)-4-[[(4S)-4-acetamido-4-carboxybutanoyl]amino]-4-carboxybutanoyl]amino]-4-carboxybutanoyl]amino]-4-carboxybutanoyl]-[Imp1, Aib2, His3, Glu15, Glu21, Lys24, Leu27, Ser28]-Glucagon] (Desaminohistidyl-[Aib]HGTFTSDYSKYLESRRAQEFVK([γGlu-γGlu-γGlu-γGlu-Ac])WLLST-OH)	2	100
CC(=O)N[C@@H](CCC(=O)N[C@@H](CCC(=O)N[C@@H](CCC(=O)N[C@@H](CCC(=O)NCC(=O)NCCCC[C@H](NC(=O)[C@@H](NC(=O)[C@H](Cc1ccccc1)NC(=O)[C@H](CCC(=O)O)NC(=O)[C@H](CCC(N)=O)NC(=O)[C@H](C)NC(=O)[C@H](CCCNC(=N)N)NC(=O)[C@H](CCCNC(=N)N)NC(=O)[C@H](CO)NC(=O)[C@H](CCC(=O)O)NC(=O)[C@H](CC(C)C)NC(=O)[C@H](Cc1ccc(O)cc1)NC(=O)[C@H](CCCCN)NC(=O)[C@H](CO)NC(=O)[C@H](Cc1ccc(O)cc1)NC(=O)[C@H](CC(=O)O)NC(=O)[C@H](CO)NC(=O)[C@@H](NC(=O)[C@H](Cc1ccccc1)NC(=O)[C@@H](NC(=O)CNC(=O)[C@H](Cc1c[nH]cn1)NC(=O)[C@H](CO)NC(=O)CCc1c[nH]cn1)[C@@H](C)O)[C@@H](C)O)C(C)C)C(=O)N[C@@H](Cc1c[nH]c2ccccc12)C(=O)N[C@@H](CC(C)C)C(=O)N[C@@H](CC(C)C)C(=O)N[C@@H](CO)C(=O)N[C@H](C(=O)O)[C@@H](C)O)C(=O)O)C(=O)O)C(=O)O)C(=O)O [Example 17, N^ϵ24-[2-[[(4S)-4-[[(4S)-4-[[(4S)-4-[[(4S)-4-acetamido-4-carboxybutanoyl]amino]-4-carboxybutanoyl]amino]-4-carboxybutanoyl]amino]-4-carboxybutanoyl]amino]acetyl]-[Imp1, His3, Glu15, Glu21, Lys24, Leu27, Ser28]-Glucagon] (Desaminohistidyl-SHGTFTSDYSKYLESRRAQEFVK([Gly-γGlu-γGlu-γGlu-γGlu-Ac])WLLST-OH)		100
